One assay deals with Ephrin type-A receptor 2 (Homo sapiens, UniProt P29317).
The target in assay [1] is T1, MAP kinase-activated protein kinase 5 (Homo sapiens, UniProt Q8IW41).
T1 sequence (Q8IW41 whole entry): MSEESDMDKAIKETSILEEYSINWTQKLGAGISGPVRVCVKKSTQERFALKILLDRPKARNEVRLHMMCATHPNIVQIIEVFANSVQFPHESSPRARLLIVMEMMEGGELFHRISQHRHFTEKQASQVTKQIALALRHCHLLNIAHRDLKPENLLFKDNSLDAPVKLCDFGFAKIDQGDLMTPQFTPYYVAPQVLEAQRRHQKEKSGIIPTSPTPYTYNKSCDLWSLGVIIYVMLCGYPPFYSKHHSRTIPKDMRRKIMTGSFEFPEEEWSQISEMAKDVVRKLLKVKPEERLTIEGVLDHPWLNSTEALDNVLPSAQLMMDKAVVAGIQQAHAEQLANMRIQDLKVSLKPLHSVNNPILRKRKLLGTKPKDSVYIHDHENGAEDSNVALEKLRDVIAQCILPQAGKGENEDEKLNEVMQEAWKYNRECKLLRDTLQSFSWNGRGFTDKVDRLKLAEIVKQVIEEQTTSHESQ

For assay [2], the target named is T2, Probable ATP-dependent RNA helicase DDX6 (Homo sapiens, UniProt P26196).
T2 sequence (P26196 whole entry): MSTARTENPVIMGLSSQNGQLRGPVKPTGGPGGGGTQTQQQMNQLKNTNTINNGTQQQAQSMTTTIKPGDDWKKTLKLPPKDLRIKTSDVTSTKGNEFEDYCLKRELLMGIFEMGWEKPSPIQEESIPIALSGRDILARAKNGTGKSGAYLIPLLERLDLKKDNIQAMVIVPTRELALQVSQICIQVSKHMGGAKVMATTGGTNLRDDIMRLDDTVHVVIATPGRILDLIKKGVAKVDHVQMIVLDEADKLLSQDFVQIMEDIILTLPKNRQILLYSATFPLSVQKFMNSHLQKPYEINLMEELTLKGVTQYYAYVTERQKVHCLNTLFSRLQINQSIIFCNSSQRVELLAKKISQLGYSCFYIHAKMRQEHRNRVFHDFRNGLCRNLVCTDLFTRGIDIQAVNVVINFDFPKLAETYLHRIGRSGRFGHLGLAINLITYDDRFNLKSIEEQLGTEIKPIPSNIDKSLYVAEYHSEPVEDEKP

The target in assay [3] is Mitogen-activated protein kinase 7 (Homo sapiens, UniProt Q13164).
A further assay concerns the target Insulin receptor (Homo sapiens, UniProt P06213).
Assay [4] concerns the target Adenylate kinase 2, mitochondrial (Homo sapiens, UniProt P54819).
Assay [5] has as its target T3, Cyclin-G-associated kinase (Homo sapiens, UniProt O14976).
T3 sequence (O14976 whole entry): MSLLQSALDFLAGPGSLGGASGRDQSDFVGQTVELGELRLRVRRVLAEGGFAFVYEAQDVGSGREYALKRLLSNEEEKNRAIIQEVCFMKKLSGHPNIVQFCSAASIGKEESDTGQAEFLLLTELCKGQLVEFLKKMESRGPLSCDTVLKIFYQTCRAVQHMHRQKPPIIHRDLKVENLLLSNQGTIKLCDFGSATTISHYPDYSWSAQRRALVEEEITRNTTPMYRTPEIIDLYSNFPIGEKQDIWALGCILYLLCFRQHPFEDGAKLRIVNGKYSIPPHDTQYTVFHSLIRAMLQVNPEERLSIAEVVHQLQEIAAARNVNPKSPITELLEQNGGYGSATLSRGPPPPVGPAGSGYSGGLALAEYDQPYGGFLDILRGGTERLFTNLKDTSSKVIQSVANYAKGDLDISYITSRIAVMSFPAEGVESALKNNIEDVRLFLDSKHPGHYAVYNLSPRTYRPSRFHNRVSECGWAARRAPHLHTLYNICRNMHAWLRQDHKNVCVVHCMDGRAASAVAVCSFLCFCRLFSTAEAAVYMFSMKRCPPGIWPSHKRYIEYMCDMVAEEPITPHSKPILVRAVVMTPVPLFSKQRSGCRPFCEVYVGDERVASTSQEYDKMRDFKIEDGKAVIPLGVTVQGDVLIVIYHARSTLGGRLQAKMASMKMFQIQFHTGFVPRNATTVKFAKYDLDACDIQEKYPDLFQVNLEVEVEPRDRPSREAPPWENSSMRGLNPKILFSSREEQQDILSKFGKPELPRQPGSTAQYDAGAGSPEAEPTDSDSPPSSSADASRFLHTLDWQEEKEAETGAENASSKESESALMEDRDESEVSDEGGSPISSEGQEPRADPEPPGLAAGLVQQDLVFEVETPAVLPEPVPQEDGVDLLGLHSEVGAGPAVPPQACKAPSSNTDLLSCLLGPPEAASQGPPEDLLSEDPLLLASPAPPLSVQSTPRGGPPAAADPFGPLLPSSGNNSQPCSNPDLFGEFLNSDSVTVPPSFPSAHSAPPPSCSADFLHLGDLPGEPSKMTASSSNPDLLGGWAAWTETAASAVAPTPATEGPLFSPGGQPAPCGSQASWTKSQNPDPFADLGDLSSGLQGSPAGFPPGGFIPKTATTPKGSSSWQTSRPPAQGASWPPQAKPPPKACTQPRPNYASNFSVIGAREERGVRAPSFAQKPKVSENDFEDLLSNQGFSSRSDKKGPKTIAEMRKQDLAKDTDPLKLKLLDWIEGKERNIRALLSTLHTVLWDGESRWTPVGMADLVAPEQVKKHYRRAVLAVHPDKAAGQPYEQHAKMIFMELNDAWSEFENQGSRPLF

Assay [6] has as its target Ribosomal protein S6 kinase alpha-3 (Homo sapiens, UniProt P51812).
For assay [7], the target named is T4, Phosphatidylinositol 5-phosphate 4-kinase type-2 gamma (Homo sapiens, UniProt Q8TBX8).
T4 sequence (Q8TBX8 whole entry): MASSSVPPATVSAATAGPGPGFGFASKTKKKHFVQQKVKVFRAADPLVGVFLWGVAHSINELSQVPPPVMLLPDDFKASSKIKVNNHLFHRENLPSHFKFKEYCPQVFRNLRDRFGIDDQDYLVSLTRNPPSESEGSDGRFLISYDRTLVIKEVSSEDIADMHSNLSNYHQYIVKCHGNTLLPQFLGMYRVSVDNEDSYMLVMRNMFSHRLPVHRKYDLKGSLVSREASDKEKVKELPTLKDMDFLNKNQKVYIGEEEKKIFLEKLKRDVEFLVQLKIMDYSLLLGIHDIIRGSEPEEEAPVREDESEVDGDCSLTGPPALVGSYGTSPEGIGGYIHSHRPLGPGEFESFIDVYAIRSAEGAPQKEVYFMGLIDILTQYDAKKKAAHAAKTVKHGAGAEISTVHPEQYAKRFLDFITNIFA

The source made the active and inactive calls. Where only a bound is given, the exact number is not on record here.
Note: in the data inactive means no Kd found up to 30 µM.

Chain of Insulin receptor (P06213 28-758 limits assumed): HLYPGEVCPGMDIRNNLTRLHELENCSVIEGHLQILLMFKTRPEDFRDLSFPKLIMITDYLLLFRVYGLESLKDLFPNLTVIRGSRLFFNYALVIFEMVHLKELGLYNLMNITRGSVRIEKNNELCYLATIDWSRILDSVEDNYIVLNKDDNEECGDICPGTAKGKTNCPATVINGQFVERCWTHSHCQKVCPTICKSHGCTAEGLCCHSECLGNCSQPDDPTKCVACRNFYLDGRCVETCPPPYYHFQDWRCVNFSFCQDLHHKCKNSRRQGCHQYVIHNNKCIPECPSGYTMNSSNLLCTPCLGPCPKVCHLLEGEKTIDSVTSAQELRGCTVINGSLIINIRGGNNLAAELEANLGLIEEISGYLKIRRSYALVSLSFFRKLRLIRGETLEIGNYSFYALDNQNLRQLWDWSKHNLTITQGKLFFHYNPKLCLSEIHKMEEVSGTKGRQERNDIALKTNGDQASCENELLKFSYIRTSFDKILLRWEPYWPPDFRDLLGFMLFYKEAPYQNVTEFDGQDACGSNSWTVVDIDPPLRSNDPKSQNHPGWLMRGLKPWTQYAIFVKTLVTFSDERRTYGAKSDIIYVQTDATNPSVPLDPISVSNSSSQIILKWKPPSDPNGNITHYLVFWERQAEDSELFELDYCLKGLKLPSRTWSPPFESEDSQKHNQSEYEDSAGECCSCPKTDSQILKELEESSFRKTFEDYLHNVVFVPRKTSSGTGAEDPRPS
Chain of Insulin receptor (P06213 763-1382 limits assumed): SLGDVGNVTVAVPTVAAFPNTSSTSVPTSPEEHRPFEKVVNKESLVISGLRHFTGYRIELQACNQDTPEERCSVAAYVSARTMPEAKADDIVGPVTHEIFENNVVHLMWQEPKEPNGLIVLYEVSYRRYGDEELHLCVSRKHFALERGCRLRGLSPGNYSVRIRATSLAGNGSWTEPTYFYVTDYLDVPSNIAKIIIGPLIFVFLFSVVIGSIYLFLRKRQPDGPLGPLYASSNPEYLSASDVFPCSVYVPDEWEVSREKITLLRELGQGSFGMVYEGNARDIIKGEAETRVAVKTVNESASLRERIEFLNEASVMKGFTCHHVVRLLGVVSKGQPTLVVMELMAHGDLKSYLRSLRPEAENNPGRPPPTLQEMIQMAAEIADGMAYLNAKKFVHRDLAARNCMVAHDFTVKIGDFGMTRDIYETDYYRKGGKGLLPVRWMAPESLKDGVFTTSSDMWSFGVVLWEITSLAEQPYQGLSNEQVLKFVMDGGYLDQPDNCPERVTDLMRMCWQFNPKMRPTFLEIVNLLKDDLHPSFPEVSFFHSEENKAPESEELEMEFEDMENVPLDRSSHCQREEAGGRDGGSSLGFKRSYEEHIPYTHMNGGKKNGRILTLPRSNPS
Chain of Ribosomal protein S6 kinase alpha-3 (P51812 whole entry): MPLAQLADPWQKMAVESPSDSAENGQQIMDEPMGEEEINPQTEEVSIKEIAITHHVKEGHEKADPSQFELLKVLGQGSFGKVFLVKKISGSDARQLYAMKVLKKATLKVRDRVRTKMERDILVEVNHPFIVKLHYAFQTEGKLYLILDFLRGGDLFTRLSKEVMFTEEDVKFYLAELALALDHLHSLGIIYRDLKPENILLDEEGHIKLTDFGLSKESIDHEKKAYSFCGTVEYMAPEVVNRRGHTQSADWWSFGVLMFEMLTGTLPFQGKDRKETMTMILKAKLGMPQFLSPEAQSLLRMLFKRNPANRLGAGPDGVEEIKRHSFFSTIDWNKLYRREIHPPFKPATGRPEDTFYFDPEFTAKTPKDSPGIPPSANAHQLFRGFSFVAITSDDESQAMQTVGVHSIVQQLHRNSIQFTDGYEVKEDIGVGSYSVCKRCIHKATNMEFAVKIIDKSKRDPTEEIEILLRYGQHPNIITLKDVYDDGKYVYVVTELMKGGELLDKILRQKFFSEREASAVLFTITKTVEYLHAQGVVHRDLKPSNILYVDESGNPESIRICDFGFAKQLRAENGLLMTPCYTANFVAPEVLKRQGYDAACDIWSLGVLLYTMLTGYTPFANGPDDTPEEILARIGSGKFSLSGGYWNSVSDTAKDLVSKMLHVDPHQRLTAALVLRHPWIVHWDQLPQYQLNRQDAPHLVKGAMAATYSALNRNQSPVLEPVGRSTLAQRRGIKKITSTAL
Chain of Ephrin type-A receptor 2 (P29317 whole entry): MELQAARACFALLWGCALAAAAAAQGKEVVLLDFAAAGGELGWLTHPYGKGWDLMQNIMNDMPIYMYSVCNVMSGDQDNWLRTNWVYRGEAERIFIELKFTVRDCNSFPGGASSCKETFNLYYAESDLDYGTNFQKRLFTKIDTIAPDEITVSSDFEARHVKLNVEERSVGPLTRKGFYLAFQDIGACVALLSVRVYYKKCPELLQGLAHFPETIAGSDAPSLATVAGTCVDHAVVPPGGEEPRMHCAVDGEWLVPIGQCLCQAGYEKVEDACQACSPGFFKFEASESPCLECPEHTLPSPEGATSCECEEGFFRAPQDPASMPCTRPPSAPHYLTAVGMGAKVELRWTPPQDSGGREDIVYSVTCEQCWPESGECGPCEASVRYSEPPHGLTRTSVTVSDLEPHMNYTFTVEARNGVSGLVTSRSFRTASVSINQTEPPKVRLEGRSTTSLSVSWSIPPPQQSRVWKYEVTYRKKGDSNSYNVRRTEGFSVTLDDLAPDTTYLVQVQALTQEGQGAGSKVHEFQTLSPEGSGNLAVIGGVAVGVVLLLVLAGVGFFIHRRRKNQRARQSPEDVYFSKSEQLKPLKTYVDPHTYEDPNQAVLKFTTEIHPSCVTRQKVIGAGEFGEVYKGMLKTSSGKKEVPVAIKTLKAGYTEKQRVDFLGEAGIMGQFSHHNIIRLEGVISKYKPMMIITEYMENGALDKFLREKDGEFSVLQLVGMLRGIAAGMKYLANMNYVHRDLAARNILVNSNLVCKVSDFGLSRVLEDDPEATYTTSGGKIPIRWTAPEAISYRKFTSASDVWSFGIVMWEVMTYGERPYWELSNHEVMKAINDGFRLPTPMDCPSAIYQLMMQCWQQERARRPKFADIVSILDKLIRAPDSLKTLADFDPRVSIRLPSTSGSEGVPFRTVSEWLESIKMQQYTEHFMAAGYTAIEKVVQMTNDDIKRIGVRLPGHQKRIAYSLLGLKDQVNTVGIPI
Chain of Mitogen-activated protein kinase 7 (Q13164 whole entry): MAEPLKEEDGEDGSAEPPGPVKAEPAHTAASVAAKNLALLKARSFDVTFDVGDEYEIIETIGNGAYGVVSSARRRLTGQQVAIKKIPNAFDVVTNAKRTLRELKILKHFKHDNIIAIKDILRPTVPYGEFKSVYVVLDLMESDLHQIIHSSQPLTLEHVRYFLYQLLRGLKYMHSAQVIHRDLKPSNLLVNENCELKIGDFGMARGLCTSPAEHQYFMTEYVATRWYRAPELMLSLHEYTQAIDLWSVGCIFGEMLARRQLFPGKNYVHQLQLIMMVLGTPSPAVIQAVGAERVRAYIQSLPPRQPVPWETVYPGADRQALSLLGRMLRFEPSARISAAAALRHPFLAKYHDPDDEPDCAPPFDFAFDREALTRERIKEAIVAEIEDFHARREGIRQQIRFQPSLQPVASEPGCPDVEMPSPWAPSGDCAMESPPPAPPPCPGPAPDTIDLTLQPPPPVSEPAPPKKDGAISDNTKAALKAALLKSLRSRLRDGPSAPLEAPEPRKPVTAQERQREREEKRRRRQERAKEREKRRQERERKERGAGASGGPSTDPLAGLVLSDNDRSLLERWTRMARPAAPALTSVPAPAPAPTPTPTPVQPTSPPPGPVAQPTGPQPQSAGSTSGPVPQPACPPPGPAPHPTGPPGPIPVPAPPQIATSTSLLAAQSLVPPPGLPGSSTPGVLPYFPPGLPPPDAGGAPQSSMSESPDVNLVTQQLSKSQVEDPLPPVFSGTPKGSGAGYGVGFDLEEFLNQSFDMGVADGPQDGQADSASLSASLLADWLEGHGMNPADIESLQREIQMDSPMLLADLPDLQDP

Consider `O=C(Nc1ccc(-c2ccnc(Nc3ccc(N4CCOCC4)cc3)n2)cc1)C1CCCN1` (centres undefined) [XL-019], for which the Kd (at Ephrin type-A receptor 2; in [1]; in assay [2]; in assay [3]; at Insulin receptor; in assay [4]) was > 30 µM (inactive) each time. Besides, the Kd in assay [5] is 0.05 µM (active); in [6] it was > 30 µM (inactive); in [7] it was 1.59 µM (active).

On to `CN1CCC(COc2cnc(-c3cccc(Cn4nc(-c5cccc(C#N)c5)ccc4=O)c3)nc2)CC1` [TEPOTINIB], for which the Kd (on Ephrin type-A receptor 2; in [1]; in [2]; in [3]; at Insulin receptor; in [4]) was > 30 µM (inactive) each time. Moreover, the Kd in assay [5], in assay [6] and in [7] was > 30 µM (inactive) in each case.

With `CCn1c(=O)c(-c2cc[nH]n2)cc2c(C)nc(N)nc21` [VOXTALISIB], the Kd (at Ephrin type-A receptor 2; in assay [1]; in assay [2]; in assay [3]; at Insulin receptor; in [4]) was > 30 µM (inactive) in each case. Also, the Kd in [5], in assay [6] and in assay [7] was > 30 µM (inactive) each time.

As for `Cn1cc(-c2ccc(F)c(C(F)(F)F)c2)nc1C1CCN(c2ncnc3[nH]ncc23)CC1` [LY-2584702], the Kd (at Ephrin type-A receptor 2; in [1]; in assay [2]; in assay [3]; at Insulin receptor; in assay [4]) was > 30 µM (inactive) throughout. Also, the Kd in assay [5], in assay [6] and in [7] was > 30 µM (inactive) throughout.

Regarding `CNC(=O)c1cc(Oc2ccc(NC(=O)Nc3ccc(Cl)c(C(F)(F)F)c3)c(F)c2)ccn1` [REGORAFENIB], the Kd on Ephrin type-A receptor 2 was 0.832 µM (active); in [1], > 30 µM (inactive); in assay [2], > 30 µM (inactive); in assay [3], > 30 µM (inactive); on Insulin receptor it was > 30 µM (inactive); in [4], > 30 µM (inactive). In addition, the Kd in [5], in assay [6] and in assay [7] was > 30 µM (inactive) each time.

As for `COC(=O)N[C@@H](C)CNc1nccc(-c2cn(C(C)C)nc2-c2cc(Cl)cc(NS(C)(=O)=O)c2F)n1` [ENCORAFENIB], the Kd (on Ephrin type-A receptor 2; in [1]; in assay [2]; in [3]; on Insulin receptor; in assay [4]) was > 30 µM (inactive) in each case. In addition, the Kd in assay [5], in [6] and in assay [7] was > 30 µM (inactive) in each case.

For `Cc1c(F)cc(C(=O)NC2CC2)cc1-c1ccc(C(=O)NCC(C)(C)C)cn1` [LOSMAPIMOD], the Kd (at Ephrin type-A receptor 2; in assay [1]; in assay [2]; in assay [3]; at Insulin receptor; in [4]) was > 30 µM (inactive) in each case. In addition, the Kd in assay [5], in assay [6] and in assay [7] was > 30 µM (inactive) in each case.

Turning to `Cc1cc(-c2cc(O)ccc2Cl)cc2nnc(Nc3ccc(OCCN4CCCC4)cc3)nc12`, the Kd at Ephrin type-A receptor 2 is 0.001 µM (active); in assay [1], > 30 µM (inactive); in [2], > 30 µM (inactive); in assay [3] it was > 30 µM (inactive); on Insulin receptor, > 30 µM (inactive); in assay [4], > 30 µM (inactive). Besides, the figures for the Kd in [5], in assay [6] and in assay [7] were 0.002 µM (active), > 30 µM (inactive) and > 30 µM (inactive), respectively.

As for `C=CC(=O)N1CCC(Oc2cc3c(Nc4ccc(Cl)c(Cl)c4F)ncnc3cc2OC)CC1` [POZIOTINIB], the Kd (at Ephrin type-A receptor 2; in [1]; in assay [2]; in assay [3]; on Insulin receptor; in [4]) was > 30 µM (inactive) each time. The Kd in assay [5], in [6] and in assay [7] was > 30 µM (inactive) in each case.

Consider `CC[C@@H]1C(=O)N(C)c2cnc(Nc3ccc(C(=O)N[C@H]4CC[C@H](N5CCN(CC6CC6)CC5)CC4)cc3OC)nc2N1C(C)C` [VOLASERTIB], for which the Kd (at Ephrin type-A receptor 2; in [1]; in assay [2]; in [3]; at Insulin receptor; in assay [4]) was > 30 µM (inactive) each time. Also, the Kd in assay [5], in assay [6] and in assay [7] was > 30 µM (inactive) each time.

Turning to `O=c1sn(-c2cccc3ccccc23)c(=O)n1Cc1ccccc1` [TIDEGLUSIB], the Kd (at Ephrin type-A receptor 2; in [1]; in assay [2]; in [3]; on Insulin receptor; in assay [4]) was > 30 µM (inactive) throughout. The Kd in [5], in [6] and in assay [7] was > 30 µM (inactive) in each case.

By Kd is commonly meant a measure of binding affinity in units of concentration.

For the origin of these results see ChEMBL document CHEMBL3991601, “The target landscape of clinical kinase drugs” (Science, 2017).
